Experimental data as given in patent publication US20070010489A1 (priority 2002, published 2007).
Where two headings read alike, the source gives them in different places.

Assays:
[1] = test system: HIV; assay: microbe, parasite or virus in culture; assay type: cell-based; conditions: Human immunodeficiency virus 1
[2] = test system: I84V/L90M; design: key to the marks not given beside the values
[3] = test system: I50V (#1); design: key to the marks not given beside the values
[4] = biological target: T1, 84V90M (Human immunodeficiency virus type 1 group M subtype B, UniProt P04585, I572V/L578M); assay: cell-based; design: species or system HIV; conditions: Cell-based assay (MT-4)
[5] = biological target: T2, recombinant HIV-1 protease (Human immunodeficiency virus type 1 group M subtype B, UniProt P04585); assay: biochemical; conditions: for Ki: read-out: Ki; for IC50: read-out: WT IC50
T2 construct: Enzyme: recombinant HIV-1 protease expressed in E. Coli; purchased Bachem California, Inc. H-9040; host or cells: E. coli

[6] = biological target: T1, 84V90M; assay type: biochemical, HIV; conditions: Enzymatic assay
[7] = test system: MT-2 cells
[8] = test system: 30N82I88D; assay: microbe, parasite or virus in culture; assay type: cell-based, HIV; conditions: Human immunodeficiency virus 1, read-out: EC50 30N 82I88D
[9] = test system: 48V82A90M; assay: microbe, parasite or virus in culture; assay type: cell-based, HIV; conditions: Human immunodeficiency virus 1, read-out: EC50 48V82A 90M
[10] = test system: 46I50V; assay: microbe, parasite or virus in culture; assay type: cell-based, HIV; conditions: Human immunodeficiency virus 1, read-out: EC50 46I50V
[11] = test system: 48V54V82A; assay: microbe, parasite or virus in culture; assay type: cell-based, HIV; conditions: Human immunodeficiency virus 1, read-out: EC50 48V54V 82A
[12] = test system: 48V54V82S; assay: microbe, parasite or virus in culture; assay type: cell-based, HIV; conditions: Human immunodeficiency virus 1, read-out: EC50 48V54V 82S
[13] = test system: wild-type HIV-1 strain IIIB; assay: microbe, parasite or virus in culture; assay type: cell-based; conditions: Human immunodeficiency virus 1, IIIB
[14] = test system: mutant HIV-1 with I84V/L90M mutations; assay: microbe, parasite or virus in culture; assay type: cell-based; conditions: fold difference in EC50 mutant vs wild type, class symbols
[15] = test system: WT; assay: microbe, parasite or virus in culture; assay type: cell-based, HIV
[16] = biological target: T1, 84V90M; assay: biochemical; assay type: biochemical, HIV; conditions: Enzymatic assay
[17] = Human immunodeficiency virus 1, read-out: EC50 WT

COc1ccc(S(=O)(=O)N(CC(O)C(Cc2ccccc2)NC(=O)OC2COC3OCCC23)CC(C)(C)COCP(=O)(OCc2ccccc2)OCc2ccccc2)cc1 (stereo not drawn)
EC50 [1]: < 50 nM | I84V/L90M fold change [2]: ++

CCOP(=O)(COCC(C)(C)CN(CC(O)C(Cc1ccccc1)NC(=O)OC1COC2OCCC12)S(=O)(=O)c1ccc(OC)cc1)OCC (stereo not drawn)
EC50 [1]: < 50 nM | I84V/L90M fold change [2]: +++

COc1ccc(S(=O)(=O)N(Cc2ccccc2)CC(O)C(Cc2ccccc2)NC(=O)OC2COC3OCCC23)cc1 (stereo not drawn)
EC50 [1]: < 50 nM | I50V (#1) fold change [3]: +++ | I84V/L90M fold change [2]: +++

Nc1n[nH]c2ccc(CN3C(=O)N(Cc4ccc(OCP(=O)(OCc5ccccc5)OCc5ccccc5)cc4)C(Cc4ccccc4)C(O)C(O)C3Cc3ccccc3)cc12 (stereo not drawn)
EC50 [4]: 4960 nM | Ki [5]: > 5 nM | IC50 [5]: 276 nM | IC50 [6]: 2040 nM

CCCCOC(=O)C(C)NP(=O)(COc1cccc(CN2C(=O)N(Cc3ccc4[nH]nc(N)c4c3)C(Cc3ccccc3)C(O)C(O)C2Cc2ccccc2)c1)NC(C)C(=O)OCCCC (stereo not drawn) [m-bis-Ala-Bu]
EC50 [4]: > 6000 nM

CCOC(=O)C(C)OP(=O)(COc1ccc(CC(NC(=O)OC2COC3OCCC23)C(O)CN(CC(C)C)S(=O)(=O)c2ccc(OC)cc2)cc1)Oc1ccccc1 (stereo not drawn) [drawing 1775 R1=OPh R2=Lac-Et]
CC50 ([7]; class symbols): 5000 to 50000 nM

Nc1n[nH]c2ccc(CN3C(=O)N(Cc4ccc(O)cc4)C(Cc4ccccc4)C(O)C(O)C3Cc3ccccc3)cc12 (stereo not drawn) [p-OH]
EC50 [8]: 79 nM | EC50 [9]: 19 nM | EC50 [10]: 55 nM | EC50 [11]: 32 nM | EC50 [12]: 39 nM

COc1ccc(S(=O)(=O)N(CC(O)C(Cc2ccccc2)NC(=O)OC2COC3OCCC23)CC(C)(C)COCP(=O)(O)O)cc1 (stereo not drawn)
EC50 [1]: 500 to 5000 nM | I84V/L90M fold change [2]: +++

COc1ccc(S(=O)(=O)N(CC(O)C(Cc2ccccc2)NC(=O)OC2COC3OCCC23)CC(C)(C)CCOCP(=O)(O)O)cc1 (stereo not drawn)
EC50 [1]: 50 to 500 nM | I50V (#1) fold change [3]: ++ | I84V/L90M fold change [2]: ++

CCOP(=O)(COc1ccc(CC2C(O)C(O)C(Cc3ccc(OC)cc3)N(Cc3cccnc3)C(=O)N2Cc2cccnc2)cc1)OCC (stereo not drawn) [OCH3, m-pyridine, OCH2PO3Et2]
EC50 [4]: 765 nM

COc1ccc(S(=O)(=O)N(CC(C)C)CC(O)C(Cc2ccc(OCP(=O)(OCc3ccccc3)OCc3ccccc3)cc2)NC(=O)OC2COC3OCCC23)cc1 (stereo not drawn) [drawing 1768 R1=OBn R2=OBn]
EC50 [13]: < 50 nM | I84V/L90M fold change [14]: − (≦3) | CC50 ([7]; human): 5000 to 50000 nM

CCOC(=O)C(C)NP(=O)(COc1cccc(CN2C(=O)N(Cc3ccc4[nH]nc(N)c4c3)C(Cc3ccccc3)C(O)C(O)C2Cc2ccccc2)c1)NC(C)C(=O)OCC (stereo not drawn) [m-bis-Ala-Et]
EC50 [4]: > 6000 nM

O=C1N(Cc2ccccc2)C(Cc2ccc(O)cc2)C(O)C(O)C(Cc2ccc(O)cc2)N1Cc1ccccc1 (stereo not drawn) [OH, Ph, OH]
EC50 [8]: 756 nM | EC50 [4]: 5610 nM | IC50 [5]: 31 nM | EC50 [10]: 928 nM | EC50 [15, 17]: 117 nM | EC50 [11]: 2270 nM | IC50 [6]: 397 nM

CCOP(=O)(COCCCCN1C(=O)N(Cc2ccc3[nH]nc(N)c3c2)C(Cc2ccccc2)C(O)C(O)C1Cc1ccccc1)OCC (stereo not drawn) [CH2OCH2PO3Et2]
EC50 [4]: 3300 nM | IC50 [6]: 123 nM

CCCCN1C(=O)N(Cc2ccc3[nH]nc(N)c3c2)C(Cc2ccccc2)C(O)C(O)C1Cc1ccccc1 (stereo not drawn) [DMP-851]
EC50 [4]: 918 nM | IC50 [6]: 9.4 nM

O=C1N(Cc2ccccc2)C(Cc2ccccc2)C(O)C(O)C(Cc2ccc(OCP(=O)(OCc3ccccc3)OCc3ccccc3)cc2)N1Cc1ccccc1 (stereo not drawn)
IC50 [16]: 158 nM

CCOP(=O)(COCCCN1C(=O)N(Cc2ccc3[nH]nc(N)c3c2)C(Cc2ccccc2)C(O)C(O)C1Cc1ccccc1)OCC (stereo not drawn) [OCH2PO3Et2]
EC50 [4]: > 6000 nM | IC50 [6]: 157 nM

CCOP(=O)(COc1ccc(CC2C(O)C(O)C(Cc3ccc(O)cc3)N(Cc3ccc(O)cc3)C(=O)N2Cc2ccc(O)cc2)cc1)OCC (stereo not drawn) [OH, Ph-pOH, OCH2PO3Et2]
EC50 [4]: 1910 nM | IC50 [6]: 18 nM

Nc1n[nH]c2ccc(CN3C(=O)N(CCCCOCP(=O)(O)O)C(Cc4ccccc4)C(O)C(O)C3Cc3ccccc3)cc12 (stereo not drawn) [CH2OCH2PO3H2]
EC50 [4]: > 4240 nM | IC50 [6]: 205 nM

O=C1N(Cc2ccccc2)C(Cc2ccccc2)C(O)C(O)C(Cc2ccccc2)N1Cc1ccccc1 (stereo not drawn) [H, Ph, H]
EC50 [8]: 3360 nM | IC50 [5]: 34 nM | EC50 [15, 17]: 2490 nM | IC50 [6]: 631 nM

Nc1n[nH]c2ccc(CN3C(=O)N(Cc4cccc(O)c4)C(Cc4ccccc4)C(O)C(O)C3Cc3ccccc3)cc12 (stereo not drawn) [m-OH]
EC50 [4]: 475 nM | Ki [5]: 0.128 nM | IC50 [5]: 1.6 nM | IC50 [6]: 12 nM

Nc1n[nH]c2ccc(CN3C(=O)N(CCCOCP(=O)(O)O)C(Cc4ccccc4)C(O)C(O)C3Cc3ccccc3)cc12 (stereo not drawn) [OCH2PO3H2]
EC50 [4]: > 6000 nM | IC50 [6]: 137 nM

CCOP(=O)(CCNC(=O)Oc1ccc(CC2C(O)C(O)C(Cc3ccc(OC)cc3)N(Cc3ccc(O)cc3)C(=O)N2Cc2ccc(O)cc2)cc1)OCC (stereo not drawn) [OCH3, Ph-pOH, OCONH(CH2)2PO3Et2]
IC50 [16]: 49 nM

CCOP(=O)(COc1cccc(CN2C(=O)N(Cc3ccc4[nH]nc(N)c4c3)C(Cc3ccccc3)C(O)C(O)C2Cc2ccccc2)c1)OCC (stereo not drawn)
EC50 [4]: 3000 nM | Ki [5]: 1.93 nM | IC50 [5]: 70 nM | IC50 [6]: 169 nM

Nc1n[nH]c2ccc(CN3C(=O)N(Cc4ccc(OCc5ccccc5)cc4)C(Cc4ccccc4)C(O)C(O)C3Cc3ccccc3)cc12 (stereo not drawn) [p-OBn]
EC50 [4]: 5310 nM | Ki [5]: > 5 nM | IC50 [5]: 353 nM | EC50 ([15]; read-out: EC50 WT): 2120 nM

CCOP(=O)(COc1ccc(CC2C(O)C(O)C(Cc3ccc(OC)cc3)N(Cc3cccc(N)c3)C(=O)N2Cc2cccc(N)c2)cc1)OCC (stereo not drawn) [OCH3, Ph-mNH2, OCH2PO3Et2]
EC50 [4]: 535 nM | IC50 [16]: 56 nM | IC50 [6]: 56 nM

CCOP(=O)(COc1ccc(CN2C(=O)N(Cc3ccc4[nH]nc(N)c4c3)C(Cc3ccccc3)C(O)C(O)C2Cc2ccccc2)cc1)OCC (stereo not drawn)
EC50 [4]: > 6000 nM | Ki [5]: > 5 nM | IC50 [5]: 627 nM | IC50 [6]: 1470 nM

Nc1n[nH]c2ccc(CN3C(=O)N(Cc4cccc(OCP(=O)(O)O)c4)C(Cc4ccccc4)C(O)C(O)C3Cc3ccccc3)cc12 (stereo not drawn) [m-OCH2PO3H2]
EC50 ([15]; read-out: EC50 WT): > 12000 nM | IC50 [6]: 33 nM

CCOP(=O)(COc1ccc(CC2C(O)C(O)C(Cc3ccccc3)N(Cc3ccccc3)C(=O)N2Cc2ccccc2)cc1)OCC (stereo not drawn)
EC50 [4]: 2460 nM | IC50 [6]: 48 nM

COc1ccc(S(=O)(=O)N(CC(O)C(Cc2ccccc2)NC(=O)OC2COC3OCCC23)CC(C)(C)CCOCP(=O)(OCc2ccccc2)OCc2ccccc2)cc1 (stereo not drawn)
EC50 [1]: < 50 nM | I50V (#1) fold change [3]: +++ | I84V/L90M fold change [2]: +++

Nc1n[nH]c2ccc(CN3C(=O)N(Cc4cccc(OCP(=O)(OCc5ccccc5)OCc5ccccc5)c4)C(Cc4ccccc4)C(O)C(O)C3Cc3ccccc3)cc12 (stereo not drawn)
EC50 [4]: > 6000 nM | Ki [5]: 0.177 nM | IC50 [5]: 18 nM | IC50 [6]: 43 nM

O=C1N(Cc2ccccc2)C(Cc2ccccc2)C(O)C(O)C(Cc2ccc(OCP(=O)(O)O)cc2)N1Cc1ccccc1 (stereo not drawn)
IC50 [16]: 210 nM

COc1ccc(S(=O)(=O)N(CC(O)C(Cc2ccccc2)NC(=O)OC2COC3OCCC23)CC(C)(C)CO)cc1 (stereo not drawn)
EC50 [1]: < 50 nM | I50V (#1) fold change [3]: +++ | I84V/L90M fold change [2]: +++
